We go through three molecules from ChEMBL document CHEMBL1127385, “Synthesis and diuretic activity of alkyl- and arylguanidine analogs of N,N'-dicyclohexyl-4-morpholinecarboxamidine in rats and dogs” (J Med Chem, 1994).

Data set [1] deals with Rattus norvegicus. Put plainly: Total electrolytic excretion of sodium in urine of rats after peroral administration of 279 uM/Kg of drug. The data set is classed as ADME, organism-based. Conditions: in vivo, po.
In data set [2] the test system is Rattus norvegicus. The data set can be described thus: Total electrolytic excretion of potassium in urine of rats after peroral administration of 83.8 uM/Kg of drug. It is filed as ADME, organism-based. Conditions: in vivo, po.
The subject of data set [3] is Rattus norvegicus. The data set can be described thus: Tested for the diuretic activity by measuring the urinary volume after peroral administering 27.9 uM/Kg of drug in rats. Conditions: in vivo, po. It is filed as ADME, organism-based, Urine.
For data set [4], the system named is Rattus norvegicus. The data set can be described thus: Total electrolytic excretion of sodium in urine of rats after peroral administration of 27.9 uM/Kg of drug. The data set is classed as ADME, organism-based. Conditions: in vivo, po.
In data set [5] the test system is Rattus norvegicus. The data set can be described thus: Ratio of Total electrolytic excretion of sodium and potassium in urine of rats after peroral administration of 83.8 uM/Kg of drug. The data set is classed as ADME, organism-based. The conditions noted are these: in vivo, po.
In data set [6] the test system is Rattus norvegicus. Put plainly: Total electrolytic excretion of sodium in urine of rats after peroral administration of 83.8 uM/Kg of drug. The data set is classed as ADME, organism-based. The conditions noted are these: in vivo, po.
In data set [7] the test system is Rattus norvegicus. Put plainly: Total electrolytic excretion of chlorine in urine of rats after peroral administration of 27.9 uM/Kg of drug. The data set is classed as ADME, organism-based. The conditions noted are these: in vivo, po.
The subject of data set [8] is Rattus norvegicus. The data set can be described thus: Tested for the diuretic activity by measuring the urinary volume after peroral administering 279 uM/Kg of drug in rats. The data set is classed as ADME, organism-based, Urine. The conditions noted are these: in vivo, po.
Data set [9] has as its system Rattus norvegicus. The data set can be described thus: Ratio of Total electrolytic excretion of sodium and potassium in urine of rats after peroral administration of 27.9 uM/Kg of drug. The data set is classed as ADME, organism-based. Conditions: in vivo, po.
Data set [10] has as its system Rattus norvegicus. Put plainly: Tested for the diuretic activity by measuring the urinary volume after peroral administering 83.8 uM/Kg of drug in rats. The data set is classed as ADME, organism-based, Urine. Conditions: in vivo, po.
Data set [11] deals with Rattus norvegicus. The data set can be described thus: Total electrolytic excretion of chlorine in urine of rats after peroral administration of 279 uM/Kg of drug. It is filed as ADME, organism-based. Conditions: in vivo, po.
The test system of data set [12] is Rattus norvegicus. Put plainly: Total electrolytic excretion of potassium in urine of rats after peroral administration of 27.9 uM/Kg of drug. The data set is classed as ADME, organism-based. Conditions: in vivo, po.
In data set [13] the test system is Rattus norvegicus. Put plainly: Total electrolytic excretion of potassium in urine of rats after peroral administration of 279 uM/Kg of drug. It is filed as ADME, organism-based. Conditions: in vivo, po.
Data set [14] deals with Rattus norvegicus. Put plainly: Total electrolytic excretion of chlorine in urine of rats after peroral administration of 83.8 uM/Kg of drug. The data set is classed as ADME, organism-based. The conditions noted are these: in vivo, po.
Data set [15] concerns Rattus norvegicus. Put plainly: Ratio of Total electrolytic excretion of sodium and potassium in urine of rats after peroral administration of 279 uM/Kg of drug. The data set is classed as ADME, organism-based. Conditions: in vivo, po.
Data set [16] relates to Rattus norvegicus. The data set can be described thus: Total electrolytic excretion of potassium in urine of rats after peroral administration of 26.5 uM/Kg of drug. It is filed as ADME, organism-based. The conditions noted are these: in vivo, po.
The subject of data set [17] is Rattus norvegicus. The data set can be described thus: Ratio of Total electrolytic excretion of sodium and potassium in urine of rats after peroral administration of 79.4 uM/Kg of drug. Conditions: in vivo, po. It is filed as ADME, organism-based.
Data set [18] has as its system Rattus norvegicus. The data set can be described thus: Tested for the diuretic activity by measuring the urinary volume after peroral administering 79.4 uM/Kg of drug in rats. Conditions: in vivo, po. The data set is classed as ADME, organism-based, Urine.
Data set [19] relates to Rattus norvegicus. The data set can be described thus: Total electrolytic excretion of chlorine in urine of rats after peroral administration of 265 uM/Kg of drug. It is filed as ADME, organism-based. Conditions: in vivo, po.
Data set [20] relates to Rattus norvegicus. Put plainly: Total electrolytic excretion of chlorine in urine of rats after peroral administration of 26.5 uM/Kg of drug. The data set is classed as ADME, organism-based. Conditions: in vivo, po.
For data set [21], the system named is Rattus norvegicus. Put plainly: Ratio of Total electrolytic excretion of sodium and potassium in urine of rats after peroral administration of 265 uM/Kg of drug. It is filed as ADME, organism-based. The conditions noted are these: in vivo, po.
In data set [22] the test system is Rattus norvegicus. Put plainly: Total electrolytic excretion of chlorine in urine of rats after peroral administration of 79.4 uM/Kg of drug. The data set is classed as ADME, organism-based. The conditions noted are these: in vivo, po.
For data set [23], the system named is Rattus norvegicus. The data set can be described thus: Tested for the diuretic activity by measuring the urinary volume after peroral administering 265 uM/Kg of drug in rats. The data set is classed as ADME, organism-based, Urine. Conditions: in vivo, po.
Data set [24] concerns Rattus norvegicus. The data set can be described thus: Total electrolytic excretion of potassium in urine of rats after peroral administration of 265 uM/Kg of drug. The data set is classed as ADME, organism-based. Conditions: in vivo, po.
In data set [25] the test system is Rattus norvegicus. The data set can be described thus: Total electrolytic excretion of sodium in urine of rats after peroral administration of 26.5 uM/Kg of drug. The data set is classed as ADME, organism-based. Conditions: in vivo, po.
Data set [26] deals with Rattus norvegicus. The data set can be described thus: Ratio of Total electrolytic excretion of sodium and potassium in urine of rats after intravenous administration of 7.94 uM/Kg of drug. The data set is classed as ADME, organism-based. The conditions noted are these: in vivo.
In data set [27] the test system is Rattus norvegicus. Put plainly: Total electrolytic excretion of potassium in urine of rats after peroral administration of 7.94 uM/Kg of drug. The data set is classed as ADME, organism-based. Conditions: in vivo, po.
For data set [28], the system named is Rattus norvegicus. Put plainly: Ratio of Total electrolytic excretion of sodium and potassium in urine of rats after peroral administration of 26.5 uM/Kg of drug. The conditions noted are these: in vivo, po. The data set is classed as ADME, organism-based.
Data set [29] deals with Rattus norvegicus. Put plainly: Total electrolytic excretion of chlorine in urine of rats after intravenous administration of 7.94 uM/Kg of drug. It is filed as ADME, organism-based. Conditions: in vivo.
Data set [30] relates to Rattus norvegicus. Put plainly: Total electrolytic excretion of potassium in urine of rats after peroral administration of 79.4 uM/Kg of drug. It is filed as ADME, organism-based. Conditions: in vivo, po.
For data set [31], the system named is Rattus norvegicus. The data set can be described thus: Tested for the diuretic activity by measuring the urinary volume after peroral administering 26.5 uM/Kg of drug in rats. It is filed as ADME, organism-based, Urine. Conditions: in vivo, po.
Data set [32] concerns Rattus norvegicus. The data set can be described thus: Total electrolytic excretion of sodium in urine of rats after peroral administration of 265 uM/Kg of drug. It is filed as ADME, organism-based. Conditions: in vivo, po.
Data set [33] concerns Rattus norvegicus. Put plainly: Total electrolytic excretion of sodium in urine of rats after peroral administration of 79.4 uM/Kg of drug. It is filed as ADME, organism-based. The conditions noted are these: in vivo, po.
Data set [34] deals with Rattus norvegicus. The data set can be described thus: Total electrolytic excretion of sodium in urine of rats after intravenous administration of 7.94 uM/Kg of drug. The data set is classed as ADME, organism-based. Conditions: in vivo.
In data set [35] the test system is Rattus norvegicus. Put plainly: Total electrolytic excretion of sodium in urine of rats after peroral administration of 0 uM/Kg of drug. It is filed as ADME, organism-based. Conditions: in vivo, po.
For data set [36], the system named is Rattus norvegicus. Put plainly: Total electrolytic excretion of potassium in urine of rats after peroral administration of 0 uM/Kg of drug. The data set is classed as ADME, organism-based. Conditions: in vivo, po.
Data set [37] deals with Rattus norvegicus. Put plainly: Tested for the diuretic activity by measuring the urinary volume after peroral administering 0 uM/Kg of drug in rats. The conditions noted are these: in vivo, po. The data set is classed as ADME, organism-based, Urine.

For `C1CCCC(/N=C(/NC2CCCCCC2)N2CCOCC2)CC1`, the “Excretion Na+” value was determined as 1.54 m equiv with Rattus norvegicus [1], 1.21 m equiv in the data set on Rattus norvegicus [4] and 1.53 m equiv in the data set with Rattus norvegicus [6]. For the same molecule, the “Excretion K+” value with Rattus norvegicus [2] was determined as 0.31 m equiv; in the data set with Rattus norvegicus [12], 0.32 m equiv; with Rattus norvegicus [13], 0.28 m equiv. In addition, the figures for the V with Rattus norvegicus [3], in the data set with Rattus norvegicus [8] and with Rattus norvegicus [10] were 8.4 mL, 9.1 mL and 9.7 mL, respectively. In addition, the results for the Ratio in the data set with Rattus norvegicus [5], in the data set on Rattus norvegicus [9] and with Rattus norvegicus [15] were 5, 3.8 and 5.6, respectively. In addition, the results for the “Excretion Cl-” value with Rattus norvegicus [7], in the data set on Rattus norvegicus [11] and in the data set with Rattus norvegicus [14] were 1.37 m equiv, 1.66 m equiv and 1.63 m equiv, respectively.
Consider `Cc1cccc(C)c1N/C(=N/C1CCCCC1)N1CCOCC1`, for which the “Excretion K+” value in the data set on Rattus norvegicus [16] worked out at 0.33 m equiv; with Rattus norvegicus [24], 0.29 m equiv; in the data set on Rattus norvegicus [27] it was 1.3 m equiv; in the data set with Rattus norvegicus [30], 0.35 m equiv. In addition, the Ratio is on record as 4.8 in the data set with Rattus norvegicus [17], 6.1 with Rattus norvegicus [21], 6.5 in the data set on Rattus norvegicus [26] and 4.4 in the data set with Rattus norvegicus [28]. Besides, the results for the V with Rattus norvegicus [18], in the data set on Rattus norvegicus [23] and with Rattus norvegicus [31] were 12.3 mL, 17.4 mL and 9.5 mL, respectively. In addition, the “Excretion Cl-” value in the data set on Rattus norvegicus [19] is reported as 1.86 m equiv; in the data set on Rattus norvegicus [20] it was 1.4 m equiv; with Rattus norvegicus [22] it was 1.7 m equiv; in the data set with Rattus norvegicus [29] it was 6.5 m equiv. Also, the “Excretion Na+” value came to 1.44 m equiv with Rattus norvegicus [25], 2.05 m equiv in the data set with Rattus norvegicus [32], 1.71 m equiv with Rattus norvegicus [33] and 7.8 m equiv in the data set on Rattus norvegicus [34].
As to `NS(=O)(=O)c1cc(C(=O)O)c(NCc2ccco2)cc1Cl` [FUROSEMIDE], the “Excretion Na+” value with Rattus norvegicus [35] is on record as 0.65 m equiv. The “Excretion K+” value in the data set on Rattus norvegicus [36] is 0.24 m equiv. The V in the data set with Rattus norvegicus [37] came out at 4.4 mL.
